Values after ≈ are worked out from the molar mass of the structure shown.
Key:
BALB 3T3/H-ras cells = experiment: Growth inhibition against BALB 3T3/H-ras cells; assay type: cell-based; settings: Mus musculus, 72 hours, Neutral Red
Solubility = assay type: physicochemical
[1] = tested on: Enterococcus faecium ATCC 10541; experiment: Antibacterial activity, MIC by agar dilution method; assay type: cell-based; settings: ATCC10541, pH 7
Procedure: (§1) The antibacterial activity was determined by the agar dilution method using a medium (pH 7) which comprises 3 g/l Bacto-Tryptone (produced by Difco Laboratories), 3 g/l meat extract, 1 g/l yeast extract, 1 g/l glucose and 16 g/l agar.

[2] = tested on: Staphylococcus aureus ATCC 6538P; experiment: as above; assay type: cell-based; settings: ATCC6538P, pH 7
Procedure: as §1

HeLaS3 cells = experiment: Anti-tumor activity against HeLaS3 cells (Neutral Red growth inhibition); assay type: cell-based; settings: Homo sapiens, HeLa S3, 72 hours
Procedure: HeLaS3 cells (ATCC HTB22) were suspended in a medium comprising 10% fetal calf serum, 2 mM glutamine and MEM medium (produced by Nippon Pharmaceutical Co., Ltd.) (hereinafter referred to as medium A) to a concentration of 3×10^4 cells/ml. The cell suspension was put into wells of a 96-well microtiter plate in an amount of 0.1 ml per well. The cells in the plate were cultured at 37° C. for 20 hours in a CO2 -incubator. Subsequently, the test compound appropriately diluted with medium A was added to the wells in an amount of 0.1 ml/well. The cells were further cultured at 37° C. for 72 hours in the CO2 -incubator, and then the culture supernatant was removed. To the residue was added a medium comprising medium A and 0.02% Neutral Red in an amount of 0.1 ml per well, followed by culturing at 37° C. for one hour in the CO2 -incubator, whereby the cells were stained. After removal of the culture supernatant, the residue was washed once with physiological saline. The pigment was extracted with 0.001N hydrochloric acid/30% ethanol, and the absorbance at 550 nm was measured by using a microplate reader. The concentration of the test compound at which the growth of the cells is inhibited by 50% (IC50) was calculated by comparing the absorbance of untreated cells with those of the cells treated with the test compound at known concentrations.

Solubility (Solubility; acetone) | Solubility (Solubility; chloroform) | Solubility (Solubility; dimethyl sulfoxide (DMSO)) | Solubility (Solubility; ethyl acetate) | Solubility (Solubility; methanol) | Solubility (Solubility; n-hexane) | Solubility (Solubility; water) | MIC [1] [µg/mL] | MIC [2] [µg/mL] | IC50 (HeLaS3 cells) [µM] | Solubility (Solubility; ethanol) | SMILES | IC50 (BALB 3T3/H-ras cells) [nM]
Readily soluble | soluble | Readily soluble | soluble | Readily soluble | sparingly soluble | sparingly soluble |  |  |  |  | CC(=O)c1c(O)cc2cc3c(c(O)c2c1O)C(=O)c1c(O)cc(O)cc1C3=O [Saintopin E] | 2400
 |  |  |  | Soluble | sparingly soluble | Soluble | 0.52 (≈ 1.24 µM) | 0.52 (≈ 1.24 µM) | 6.1 | Soluble | O=C1c2cc(O)cc(O)c2C(=O)c2c1cc1cc(O)cc(OS(=O)(=O)O)c1c2O [UCE 1022] | 
 |  |  |  |  |  | sparingly soluble |  |  |  |  | O=C1c2cc(O)cc(O)c2C(=O)c2c1cc1cc(O)cc(O)c1c2O [UCT 1003, reference compound] | 
